These results are taken from PubChem BioAssay AID256 (DTP/NCI, 2004).

The subject of this test is CD2F1 mice, L1210 leukemia ip, survival T/C. The experiment in a line: NCI In Vivo Anticancer Drug Screen. Data for tumor model L1210 Leukemia (intraperitoneal) in CD2F1 (CDF1) mice. The settings on record: higher = longer survival. The essentials:
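Transplantable tumor in mice; compound-treated vs vehicle-treated groups. Read-out = treated/control ratio of the measured endpoint.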

Where [1] appears, read: endpoint: mean survival time, dose: 50.0 mg/kg/injection, schedule: Q01DX009 (ip), vehicle: saline.
The mark [2] stands for this setting: endpoint: mean survival time, dose: 100.0 mg/kg/injection, schedule: Q01DX009 (ip), vehicle: saline.
Where [3] appears, read: endpoint: mean survival time, dose: 200.0 mg/kg/injection, schedule: Q01DX009 (ip), vehicle: saline.
[4] abbreviates: endpoint: mean survival time, dose: 100.0 mg/kg/injection, schedule: Q01DX009 (ip), vehicle: saline with Tween-80.
Setting [5] is: endpoint: mean survival time, dose: 100.0 mg/kg/injection, schedule: Q04DX003 (ip), vehicle: saline with Tween-80.
[6] abbreviates: endpoint: mean survival time, dose: 200.0 mg/kg/injection, schedule: Q01DX009 (ip), vehicle: saline with Tween-80.
Where [7] appears, read: endpoint: mean survival time, dose: 200.0 mg/kg/injection, schedule: Q04DX003 (ip), vehicle: saline with Tween-80.
Setting [8] is: endpoint: mean survival time, dose: 400.0 mg/kg/injection, schedule: Q01DX009 (ip), vehicle: saline with Tween-80.
The mark [9] stands for this setting: endpoint: mean survival time, dose: 400.0 mg/kg/injection, schedule: Q04DX003 (ip), vehicle: saline with Tween-80.
The mark [10] stands for this setting: endpoint: mean survival time, dose: 50.0 mg/kg/injection, schedule: Q04DX002 (ip), vehicle: saline with Tween-80.
Where [11] appears, read: endpoint: mean survival time, dose: 100.0 mg/kg/injection, schedule: Q04DX002 (ip), vehicle: saline with Tween-80.
The mark [12] stands for this setting: endpoint: mean survival time, dose: 200.0 mg/kg/injection, schedule: Q04DX002 (ip), vehicle: saline with Tween-80.
[13] abbreviates: endpoint: mean survival time, dose: 400.0 mg/kg/injection, schedule: Q04DX002 (ip), vehicle: saline with Tween-80.

Values joined by “and” are separate entries in the source; they are usually repeats but may differ in a detail not shown here. Identical values can stand only once. Toxic doses and inconclusive results are not listed.

On to `c1ccc(CN2CCNCC2)cc1`, for which the T/C was 96 % of control (endpoint: mean survival time, dose: 6.25 mg/kg/injection, schedule: Q04DX003 (ip), vehicle: saline with Tween-80); 96 % of control (endpoint: mean survival time, dose: 12.5 mg/kg/injection, schedule: Q04DX003 (ip), vehicle: saline with Tween-80); 101 % of control (endpoint: mean survival time, dose: 25.0 mg/kg/injection, schedule: Q04DX003 (ip), vehicle: saline with Tween-80).

On to `CONc1ccn(C2OC(CO)C(O)C2O)c(=O)n1` (configuration not stated), for which the T/C by setting is: (endpoint: mean survival time, dose: 12.5 mg/kg/injection, schedule: Q01DX009 (ip), vehicle: saline) 108 % of control; (endpoint: mean survival time, dose: 25.0 mg/kg/injection, schedule: Q01DX009 (ip), vehicle: saline) 108 % of control; under setting [1], 117 % of control; under setting [2], 121 % of control; under setting [3], 120 % of control; (endpoint: mean survival time, dose: 400.0 mg/kg/injection, schedule: Q01DX009 (ip), vehicle: saline) 97 % of control. The T/C was 101 % of control (endpoint: median survival time, dose: 12.5 mg/kg/injection, schedule: Q01DX009 (ip), vehicle: saline); 108 % of control (endpoint: median survival time, dose: 25.0 mg/kg/injection, schedule: Q01DX009 (ip), vehicle: saline); 108 % of control (endpoint: median survival time, dose: 50.0 mg/kg/injection, schedule: Q01DX009 (ip), vehicle: saline); 111 % of control (endpoint: median survival time, dose: 100.0 mg/kg/injection, schedule: Q01DX009 (ip), vehicle: saline); 112 % of control (endpoint: median survival time, dose: 200.0 mg/kg/injection, schedule: Q01DX009 (ip), vehicle: saline); 120 % of control (endpoint: median survival time, dose: 400.0 mg/kg/injection, schedule: Q01DX009 (ip), vehicle: saline).

As to `COc1ccc(-c2cc(=O)c3ccc(O)cc3o2)cc1`, the T/C (endpoint: mean survival time, dose: 75.0 mg/kg/injection, schedule: Q01DX001 (ip), vehicle: saline) was 104 % of control; the T/C (endpoint: mean survival time, dose: 150.0 mg/kg/injection, schedule: Q01DX001 (ip), vehicle: saline) is 90 % of control; the T/C (endpoint: mean survival time, dose: 300.0 mg/kg/injection, schedule: Q01DX001 (ip), vehicle: saline) is 104 % of control.

On to `Cc1nc(N)nc(N)c1N1CCN(c2ccc(C(=O)NC(C(=O)O)C(=O)O)cc2)CC1`, for which the T/C was 117 % of control (endpoint: median survival time, dose: 1.88 mg/kg/injection, schedule: Q01DX005 (ip), vehicle: Klucel + Tween-80); 152 % of control (endpoint: median survival time, dose: 3.75 mg/kg/injection, schedule: Q01DX005 (ip), vehicle: Klucel + Tween-80); 150 % of control and 163 % of control (endpoint: median survival time, dose: 7.5 mg/kg/injection, schedule: Q01DX005 (ip), vehicle: Klucel + Tween-80); 167 % of control and 184 % of control (endpoint: median survival time, dose: 15.0 mg/kg/injection, schedule: Q01DX005 (ip), vehicle: Klucel + Tween-80); 181 % of control (endpoint: median survival time, dose: 30.0 mg/kg/injection, schedule: Q01DX005 (ip), vehicle: Klucel + Tween-80).

Regarding `O=[N+]([O-])c1ccc2nc(CC(O)(C(F)(F)F)C(F)(F)F)ccc2c1`, the T/C by setting is: under setting [4], 112 % of control; under setting [5], 102 % of control; under setting [6], 110 % of control; under setting [7], 97 % of control; under setting [8], 101 % of control; under setting [9], 113 % of control.

`COc1cccc(/C(C)=N\NC(=O)c2ccccc2)c1`: the T/C is 98 % of control (endpoint: mean survival time, dose: 25.0 mg/kg/injection, schedule: Q01DX009 (ip), vehicle: saline with Tween-80); 95 % of control (endpoint: mean survival time, dose: 50.0 mg/kg/injection, schedule: Q01DX009 (ip), vehicle: saline with Tween-80); 88 % of control under setting [4]; 96 % of control under setting [5].

On to `COc1ccc(OC)c(NC(=O)NNC(=O)c2ccc(Cl)cc2)c1`, for which the T/C under setting [4] is 90 % of control.

Take `O=C(N/N=C(/C(=N/NC(=O)c1ccccc1)c1ccccc1)c1ccccc1)c1ccccc1`: the T/C was 91 % of control under setting [7] and 87 % of control under setting [9].

With `CC1(C(=O)O)CC2CCC1CC2` (configuration not stated), the T/C is 96 % of control under setting [10], 107 % of control under setting [11], 100 % of control under setting [12] and 96 % of control under setting [13].

Regarding `COc1ccc(COc2ccc(Cl)cc2)cc1`, the T/C runs as follows: (endpoint: mean survival time, dose: 75.0 mg/kg/injection, schedule: Q04DX002 (ip), vehicle: saline with Tween-80) 87 % of control; (endpoint: mean survival time, dose: 150.0 mg/kg/injection, schedule: Q04DX002 (ip), vehicle: saline with Tween-80) 98 % of control; (endpoint: mean survival time, dose: 300.0 mg/kg/injection, schedule: Q04DX002 (ip), vehicle: saline with Tween-80) 106 % of control.

Take `[I][Pt+2][I].[NH-]c1ccccc1F.[NH-]c1ccccc1F`: the T/C was 98 % of control (endpoint: mean survival time, dose: 3.13 mg/kg/injection, schedule: Q04DX003 (ip), vehicle: distilled water + Tween-80); 101 % of control (endpoint: mean survival time, dose: 6.25 mg/kg/injection, schedule: Q04DX003 (ip), vehicle: distilled water + Tween-80); 98 % of control (endpoint: mean survival time, dose: 12.5 mg/kg/injection, schedule: Q04DX003 (ip), vehicle: distilled water + Tween-80); 101 % of control (endpoint: mean survival time, dose: 25.0 mg/kg/injection, schedule: Q04DX003 (ip), vehicle: distilled water + Tween-80); 102 % of control (endpoint: mean survival time, dose: 50.0 mg/kg/injection, schedule: Q04DX003 (ip), vehicle: distilled water + Tween-80); 98 % of control (endpoint: mean survival time, dose: 100.0 mg/kg/injection, schedule: Q04DX003 (ip), vehicle: distilled water + Tween-80). Besides, for the setting “endpoint: mean survival time, dose: 200.0 mg/kg/injection, schedule: Q04DX003 (ip), vehicle: distilled water + Tween-80”, the T/C is 101 % of control.

With `COCc1c(C)c(C)c(COC)c(C)c1C`, the T/C is, setting by setting: under setting [1], 95 % of control; under setting [2], 97 % of control; under setting [3], 88 % of control.

Consider `CC(=O)OC1(c2ccccc2)OC(=O)c2ccccc21` (configuration not stated), for which the T/C by setting is: under setting [11], 97 % of control; under setting [12], 91 % of control; under setting [13], 108 % of control.

Take `CCNC1=C(C)C(=O)C2=C(C1=O)C(COC(N)=O)C1(O)C3C(CN21)N3C` (configuration not stated): the T/C is, setting by setting: (endpoint: mean survival time, dose: 1.5 mg/kg/injection, schedule: Q01DX001 (ip), vehicle: saline) 98 % of control; (endpoint: mean survival time, dose: 3.0 mg/kg/injection, schedule: Q01DX001 (ip), vehicle: saline) 95 % of control; (endpoint: mean survival time, dose: 6.0 mg/kg/injection, schedule: Q01DX001 (ip), vehicle: saline) 101 % of control; (endpoint: mean survival time, dose: 12.0 mg/kg/injection, schedule: Q01DX001 (ip), vehicle: saline) 93 % of control; (endpoint: mean survival time, dose: 24.0 mg/kg/injection, schedule: Q01DX001 (ip), vehicle: saline) 95 % of control; (endpoint: mean survival time, dose: 30.0 mg/kg/injection, schedule: Q01DX001 (ip), vehicle: water) 100 % of control. Besides, the T/C (endpoint: mean survival time, dose: 60.0 mg/kg/injection, schedule: Q01DX001 (ip), vehicle: water) is 101 % of control.

Turning to `COc1ccc2c(c1O)CNCC2O` (configuration not stated), the T/C is 102 % of control (endpoint: mean survival time, dose: 100.0 mg/kg/injection, schedule: Q01DX001 (ip), vehicle: saline); 101 % of control (endpoint: mean survival time, dose: 200.0 mg/kg/injection, schedule: Q01DX001 (ip), vehicle: saline); 101 % of control (endpoint: mean survival time, dose: 400.0 mg/kg/injection, schedule: Q01DX001 (ip), vehicle: saline).

With `NNc1ncn[nH]1`, the T/C by setting is: (endpoint: mean survival time, dose: 25.0 mg/kg/injection, schedule: Q01DX001 (ip), vehicle: saline with Tween-80) 98 % of control; (endpoint: mean survival time, dose: 50.0 mg/kg/injection, schedule: Q01DX001 (ip), vehicle: saline with Tween-80) 101 % of control.

Consider `CCOC(=O)c1ccnc2ccc(O)cc12`, for which the T/C was 104 % of control under setting [4], 93 % of control under setting [6] and 95 % of control under setting [8].

For the molecule `Nc1nc2c(ncn2-c2ccc(Cl)c(Cl)c2)c(=O)[nH]1`, the T/C is 98 % of control under setting [10]; 93 % of control and 97 % of control under setting [11]; 97 % of control under setting [12]; 93 % of control under setting [13].

With `CC1(C(=O)c2ccccc2)CC2C=CC1C2` (configuration not stated), the T/C is 94 % of control under setting [10], 108 % of control under setting [11] and 94 % of control under setting [12].

For `C=CC1=CC(=O)OC1=O`, the T/C (endpoint: mean survival time, dose: 1.25 mg/kg/injection, schedule: Q01DX001 (ip), vehicle: saline) was 91 % of control; the T/C (endpoint: mean survival time, dose: 2.5 mg/kg/injection, schedule: Q01DX001 (ip), vehicle: saline) was 88 % of control; the T/C (endpoint: mean survival time, dose: 5.0 mg/kg/injection, schedule: Q01DX001 (ip), vehicle: saline) is 89 % of control; the T/C (endpoint: mean survival time, dose: 10.0 mg/kg/injection, schedule: Q01DX001 (ip), vehicle: saline) was 89 % of control.
